Results on 55 compounds are retold here after PubChem BioAssay AID179 (DTP/NCI, 2004).

What is called pEC50 is the negative decadic logarithm of the EC50, by convention in mol/L. Broadly, the pIC50 is −log10 of the IC50, conventionally taken in molar units. A high value points to a low IC50.

pEC50, pIC50: −log10 of the molar value. “And” between values parts separate entries of the source, which are not always exact repeats. Identical values can stand only once. The source made the active and inactive calls.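 How the source made its calls: active means compounds giving half or more protection of infected cells from virus-caused growth loss, again on retest; inactive means the rest.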

The subject of this assay is CEM cells HIV-1 protection, formazan growth assay. Kind of assay: NCI AIDS Antiviral Assay. Particulars: for pIC50: measured here: growth of uninfected CEM cells. An outline of the steps:
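CEM (human) cells, HIV-1 infected vs uninfected, 5-point dosing, formazan growth read-out. Retest threshold 50% protection.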

As to `O=C1SC(c2ccc(Cl)cc2)(c2ccc(Cl)cc2)c2ccccc21`, the pEC50 was less than 3.70 and the negative logarithm of the IC50 (pIC50) is 4.03.
Taken in the same sequence, the figures for `CN(C)CCCNC(=O)c1cc(NC(=O)c2cc(NC(=O)c3cc(NC(=O)CCCn4ccc(CO)c4CO)cn3C)cn2C)cn1C` were less than 4.70 and 6.42.
In the case of `O=C(OCC(Cl)(Cl)Cl)N1CC[C@H](C2CCCCC2)C1`, the pEC50 was less than 3.70 and the negative-log IC50 (pIC50) was 4.30.
For `Oc1c(N2CCOCC2)cc(-c2cc(N3CCOCC3)c(O)c3ccccc23)c2ccccc12` the same measures were less than 4.58 and 5.44.
Consider `CC(=O)c1ccc(NC(=O)C(=O)C(C(=O)c2ccc(Cl)c(Cl)c2)C2OC(=O)c3ccccc32)cc1` (stereo unspecified), for which the pEC50 is less than 4.06 and the negative-log IC50 (pIC50) was 4.90.
`O=C1NC(N2CCCC(CO)C2)=N/C1=C\c1cccs1` (stereo unspecified): the pEC50 is less than 3.70 and the negative logarithm of the IC50 (pIC50) is less than 3.70.
Take `COc1cc(N=Nc2ccccc2)cc(/C=N/NC(=O)c2cccnc2)c1O`: the pEC50 was less than 3.18 and the pIC50 is 4.22.
Turning to `CC1(C)C=N[N+]2(C)C3C=CC(CC3)C12` (stereo unspecified), the result was inactive.
For the compound `c1ccc2c(c1)N[C@@H]1c3[nH]c4ccccc4c3CC[C@H]21`, the pEC50 was less than 3.70 and the negative logarithm of the IC50 (pIC50) is 4.61.
For `O=C(Nc1nccs1)Nc1cc(C(F)(F)F)ccc1Cl`, the pEC50 is less than 3.70 and the negative-log IC50 (pIC50) was less than 3.70.
On to `CCOP(=O)(OCC)C1CC(O)CN1OC(=O)C(C)(C)C` (stereo unspecified), for which the pEC50 is less than 3.70 and the negative logarithm of the IC50 (pIC50) is less than 3.70.
Consider `O=C1/C(=C/c2cccs2)NC(=S)N1CN1CCCCC1`, for which the pEC50 is less than 3.70 and the pIC50 is 4.48.
Taken in the same sequence, the figures for `O=C(O)c1ccccc1/C=C1\Cc2ccc3c(c2C1=O)CCCC3` were less than 3.70 and 4.38.
Regarding `OC1CC[C@H](Cl)C2=C1[C@@]13C[C@]14OCCC3OC2[C@@H]4Cl` (stereo partly specified), the pEC50 is less than 3.37 and the pIC50 was less than 3.37.
Take `COc1cc(OC)nc(NC(=O)NS(=O)(=O)c2cccc3ncn(C)c(=O)c23)n1`: the outcome was inactive.
Turning to `CCN(CC)CCC12CC(C)OC1=Nc1ccccc1NC2=O` (stereo unspecified), the pEC50 is less than 3.70 and the negative-log IC50 (pIC50) was less than 3.70.
Regarding `CCOC(=O)C1C(c2ccccc2)=C(c2ccccc2)C(c2ccccc2)=C1c1ccccc1`, the outcome was inactive.
As for `CCOC(=O)C(=CNC(=S)Nc1ccc(Cl)c(Cl)c1)C(=O)OCC`, the pEC50 was less than 3.70 and the pIC50 was 4.46.
As for `COc1ccc(-c2oc3cc(OC)ccc3c(=O)c2O)cc1`, the pEC50 was less than 3.70 and the pIC50 was less than 3.70.
Regarding `C=CC[P+](c1ccccc1)(c1ccccc1)c1ccccc1`, the pEC50 was less than 4.70; the pIC50 was 6.25 and 6.37.
Turning to `O=P1(c2ccccc2)c2ccccc2-c2ccccc21`, the pEC50 was less than 3.70 and the negative-log IC50 (pIC50) is 3.99.
Regarding `CCOC(=O)/C(=C\c1ccc(OCc2ccccc2)c(OC)c1)C(=O)c1ccccc1`, the pEC50 was less than 4.90 and the negative logarithm of the IC50 (pIC50) is less than 4.90.
Take `COc1cc2c(c(OC)c1OC)C(=O)[C@H]1OC(=O)N[C@@H]21`: the pEC50 was less than 3.70 and the pIC50 is less than 3.70.
Consider `CSC1(CC(=O)N(C)C)C(=O)Nc2ccccc21` (stereo unspecified), for which the pEC50 was less than 3.70 and the negative logarithm of the IC50 (pIC50) was less than 3.70.
As for `C=CCn1c(=O)c(-c2ccccc2)c(O)c2ccccc21`, the pEC50 is less than 3.70 and the pIC50 is less than 3.70.
On to `O=C(O)C1CCSS1` (stereo unspecified), for which the pEC50 is less than 3.34 and the pIC50 was 3.58.
For `COc1c2oc(=O)ccc2c(Br)c2c(Br)c(Br)oc12` the same measures were less than 3.99 and 4.32.
For `COc1ccc(NC(=O)C/C(C)=N\N=C(N)N)c([N+](=O)[O-])c1` the same measures were less than 3.94 and less than 3.94.
Regarding `CC12SC3(C)SC(C)(S1)SC(C)(S2)S3`, the pEC50 was less than 4.35 and the pIC50 is 4.48.
As for `COC(=O)CC1CN(C(=O)OCc2ccccc2)C(C)(C)O1` (stereo unspecified), the pEC50 was less than 3.70 and the pIC50 was less than 3.70.
Consider `Cc1cc2c(=O)cc(-c3ccc(C(F)(F)F)cc3)oc2c(C(=O)O)c1C`, for which the result was inactive.
On to `CC(C)C1=CC2=CCC3C(C)(COC(=O)COc4ccccc4)CCCC3(C)C2CC1` (stereo unspecified), for which the pEC50 was less than 3.70 and the pIC50 was 4.33.
Turning to `C/C1=C\CC[C@@]2(C)O[C@@H]2[C@H]2OC(=O)C(C)C2C[C@H]1O` (stereo partly specified), the pEC50 was less than 3.70 and the pIC50 was less than 3.70.
In the case of `COc1ccc(OC)c(/C=C/C(=O)C(C)(C)C)c1`, the pEC50 was less than 3.98 and the pIC50 was 4.72.
For the compound `CC1CCCc2c(-c3ccc(Cl)cc3)nc(N)c(C#N)c21` (stereo unspecified), the pEC50 was less than 3.70 and the pIC50 is 4.58.
As to `O=C1CCCC(=O)N2c3ccc(cc3)CSCCSCc3ccc(cc3)N12`, the result was inactive.
Take `COC(=O)C1CC(=O)CCC1c1ccccc1` (stereo unspecified): the pEC50 was less than 3.46 and the negative logarithm of the IC50 (pIC50) was less than 3.46.
For the compound `O=C(NNC(=S)Nc1ccc(Cl)cc1)C12CC3CC(CC(C3)C1)C2`, the pEC50 is less than 3.70 and the pIC50 was 5.18.
With `Nc1nc(Cl)c2ncn(C3CC=C(CO)CC3)c2n1` (stereo unspecified), the pEC50 was less than 3.05 and the pIC50 is 4.29.
On to `CCNc1nnc(CSc2nc(-c3ccccc3)c(-c3ccccc3)[nH]2)s1`, for which the pEC50 was less than 4.60 and the pIC50 was 4.89.
Take `COC(=O)C1Cc2c(n(Cc3ccccc3)c3ccccc23)C(CCC(=O)O)N1C(C)C` (stereo unspecified): the outcome was inactive.
Take `Nc1ncnc2c1ncn2CC(=O)NCCCO`: the pEC50 is less than 3.70 and the pIC50 was less than 3.70.
Regarding `N#Cc1c(-c2ccco2)c2c(n(C3OC(CO)C(O)C(O)C3O)c1=S)CCCC2` (stereo unspecified), the pEC50 is less than 3.70 and the negative logarithm of the IC50 (pIC50) was 3.96.
For `O=C(Nc1ccc(Br)cc1)C(=O)C(C(=O)c1ccccc1F)C1OC(=O)c2ccccc21` (stereo unspecified) the same measures were less than 3.58 and 4.45.
For `O=S(=O)(CC#CCO)c1cccc2ccccc12`, the result was inactive.
Still for that read-out and setting: the same measure for `O=C(CCc1cc(-c2ccccc2)n[nH]1)Nc1ccccc1[N+](=O)[O-]`: “inactive”.
Regarding `O=C(O)C1C2OC3C(OC(=O)C31)C2Br` (stereo unspecified), the pEC50 is less than 3.70 and the pIC50 was less than 3.70.
Turning to `CC(C)OP(=O)(OC(C)C)C(=NCCO)NNc1ccc([N+](=O)[O-])cc1`, the pEC50 is less than 3.47 and the pIC50 is 4.53.
For `COc1ccc(NS(=O)c2cccc(C)c2)cc1` (stereo unspecified), the pEC50 is less than 3.70 and the pIC50 is 4.95.
In the case of `O=S(=O)(c1ccccc1)c1ccccc1`, the pEC50 was less than 3.69 and the negative logarithm of the IC50 (pIC50) was less than 3.69.
For `Cc1cn(C2CC(N=[N+]=[N-])C(CO)O2)c(=O)[nH]c1=O` (stereo unspecified), the pEC50 is 7.83 and the negative logarithm of the IC50 (pIC50) was 6.50.
As for `NC1c2c(Br)sc(N3CCCC3)c2C(=O)C1O` (stereo unspecified), the pEC50 is less than 3.70 and the pIC50 was less than 3.70.
Regarding `CCOC(=O)/C=C(/c1cc(C)[nH]c1C)N(CC)CC`, the pEC50 was less than 3.70 and the pIC50 was less than 3.70.
Consider `CC(=O)OC(CC1(C)C(C)CCC23COC(=O)C2=CCCC31)c1ccoc1` (stereo unspecified), for which the pEC50 is less than 4.16 and the pIC50 is 4.52.
In the case of `O=C(NC(Nc1ccc(F)c(Cl)c1)(C(F)(F)F)C(F)(F)F)C(C(F)(F)F)C(F)(F)F`, the pEC50 is less than 3.70.
